Earlier results on 2 compounds are cited in US20200179438A1, “BLOOD GLUCOSE SPIKE SUPPRESSOR, FOOD PRODUCT, AND METHOD FOR PRODUCING BLOOD GLUCOSE SPIKE SUPPRESSOR” (priority 2017, published 2020).

The conditions of this data set: for time until HB purity decreases after its increase: oral administration.

As for `C[C@@H](O)CC(=O)O` [HB, (R)-3-hydroxybutyric acid], the “time until HB purity decreases after its increase” value is given as “within several hours”.

With `C[C@@H](O)CCOC(=O)C[C@@H](C)O` [KE], the “time until HB purity decreases after its increase” value is “within several hours”. In addition, the “HB purity in the blood after oral administration” value (oral, reached in several minutes) was “several millimolar”.
